# Values of other authors, collected in patent US8048407B2, “In situ gelling self-reactive materials for embolization” (priority 2003, dated 2011).
# Conditions: literature studies
smiles,measurement,value
"C=CC(=O)NCNC(=O)C=C [NMBA, N,N-methylenebisacrylamide]",cross-link efficiency,0.0066
